# Measurements reported in paper PMC7226045, “Ensartinib (X-396) Effectively Modulates Pharmacokinetic Resistance Mediated by ABCB1 and ABCG2 Drug Efflux Transporters and CYP3A4 Biotransformation Enzyme” (Cancers, 2020).
# Key:
# CYP2D6 = molecular target: T1, CYP2D6 (Homo sapiens, UniProt P10635); assay: Vivid CYP screening kit, recombinant CYP2D6; format: biochemical; conditions: recombinant enzyme
# T1 construct: purchased Thermo Fisher Scientific; host or cells: insect microsomal fractions
# Description: (§1) CYP inhibitory assay was performed as described previously. Experiments were performed with commercial Vivid CYP screening kits containing insect microsomal fractions enriched with a specific human CYP isoform, human CYP reductase, and in some cases, human cytochrome b5. The potential inhibitory activity of ensartinib toward CYP1A2, CYP2B6, CYP2C8, CYP2C9, CYP2C19, CYP2D6, CYP3A4, and CYP3A5 (i.e., all CYP isoforms that drug regulatory authorities recommend for testing of inhibition by new molecular entities) was then examined. Experiments were performed using a kinetic mode in black 96-well plates according to the manufacturer´s instructions. Briefly, 5-point serial dilutions of ensartinib or the model inhibitor recommended by the manufacturer in buffer were transferred into the wells, then a master mix consisting of a CYP isoenzyme with an NADPH regeneration system in buffer was added. After a 10 min pre-incubation, the reaction was initiated by adding a mixture of NADP^+ and the appropriate Vivid substrate, after which fluorescence was measured at 1 min intervals for 60 min using an Infinite M200 Pro microplate reader (Tecan, Männedorf, Switzerland). The enzyme concentration and incubation interval used for data evaluation (15 min) placed the systems within the linear regions of the appropriate reaction velocity curves. […]
# ABCC1 = molecular target: T2, ABCC1 (Homo sapiens, UniProt P33527); assay: MDCKII monolayer transport assay, MDCKII-ABCC1; format: in vitro ADME; conditions: dog, 1 µM ensartinib, read-out: transport ratio (r), BA/AB
# T2 construct: expressed in transfected cells; host or cells: MDCKII-ABCC1 (from Dr. Alfred Schinkel, The Netherlands Cancer Institute)
# T2 sequence (P33527 whole entry): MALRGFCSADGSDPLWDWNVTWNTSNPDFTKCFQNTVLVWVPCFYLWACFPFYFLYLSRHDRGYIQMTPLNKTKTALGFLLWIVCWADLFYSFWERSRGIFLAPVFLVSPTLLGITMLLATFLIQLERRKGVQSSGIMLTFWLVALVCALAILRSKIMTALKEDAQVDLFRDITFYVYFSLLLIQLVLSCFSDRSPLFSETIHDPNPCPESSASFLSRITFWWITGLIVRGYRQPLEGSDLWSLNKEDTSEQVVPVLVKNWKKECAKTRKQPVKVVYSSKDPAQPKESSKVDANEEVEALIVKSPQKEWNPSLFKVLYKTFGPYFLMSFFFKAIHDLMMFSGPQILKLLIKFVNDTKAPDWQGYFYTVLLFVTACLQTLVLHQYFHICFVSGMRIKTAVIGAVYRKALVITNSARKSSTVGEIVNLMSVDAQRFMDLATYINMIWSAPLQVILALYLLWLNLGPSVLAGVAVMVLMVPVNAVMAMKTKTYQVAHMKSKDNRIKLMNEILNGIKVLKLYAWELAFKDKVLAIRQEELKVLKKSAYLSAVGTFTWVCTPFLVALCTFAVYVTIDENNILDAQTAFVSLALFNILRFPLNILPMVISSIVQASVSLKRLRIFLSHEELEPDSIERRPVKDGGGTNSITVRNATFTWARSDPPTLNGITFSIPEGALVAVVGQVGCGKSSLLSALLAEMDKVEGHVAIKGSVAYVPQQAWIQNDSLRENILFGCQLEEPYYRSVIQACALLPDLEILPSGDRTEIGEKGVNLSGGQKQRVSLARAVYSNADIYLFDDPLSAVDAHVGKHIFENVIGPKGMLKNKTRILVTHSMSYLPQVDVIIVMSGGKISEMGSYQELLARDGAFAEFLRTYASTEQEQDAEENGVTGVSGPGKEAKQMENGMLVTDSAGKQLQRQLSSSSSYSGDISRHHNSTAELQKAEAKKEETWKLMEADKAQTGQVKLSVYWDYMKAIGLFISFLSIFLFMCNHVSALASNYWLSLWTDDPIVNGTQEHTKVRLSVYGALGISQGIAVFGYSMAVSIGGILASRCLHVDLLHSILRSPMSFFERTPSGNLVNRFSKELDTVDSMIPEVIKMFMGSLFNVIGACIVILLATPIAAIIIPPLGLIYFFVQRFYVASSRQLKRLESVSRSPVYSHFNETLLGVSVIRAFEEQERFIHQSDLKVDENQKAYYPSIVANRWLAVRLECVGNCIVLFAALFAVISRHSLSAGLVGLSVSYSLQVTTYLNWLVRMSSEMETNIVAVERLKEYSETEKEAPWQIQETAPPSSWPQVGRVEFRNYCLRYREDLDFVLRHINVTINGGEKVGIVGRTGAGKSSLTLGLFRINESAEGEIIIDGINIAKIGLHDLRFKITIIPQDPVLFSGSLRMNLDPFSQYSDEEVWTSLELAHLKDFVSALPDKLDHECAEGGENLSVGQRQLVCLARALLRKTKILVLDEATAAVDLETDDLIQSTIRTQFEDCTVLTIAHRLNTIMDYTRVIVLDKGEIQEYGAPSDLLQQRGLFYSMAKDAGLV
# Description: Transport assays were performed on microporous polycarbonate membrane filters (3 µm pore size, 24 mm diameter, Transwell 3414; Costar, Corning, NY, USA) using MDCKII parental as well as ABCB1-, ABCG2-, and ABCC1-overexpressing MDCKII cells. The cells were seeded at a density of 1.5 × 10^6 cells per insert and cultured to full confluence for 7 days with media exchanges on the second and fourth days. Before the start of the transport experiments, inserts were washed with 1 × PBS on both the apical and basal sides. The cells were then preincubated in Opti-MEM with or without model inhibitors (1 µM LY335979, 1 µM Ko143, or 25 µM MK-571). […] Ensartinib levels in samples were measured by UHPLC-MS/MS (see below). […]
# Samples from the monolayer transport assays (10 µL) were mixed with 100 µL of acetonitrile and 100 µL of methanol, vortexed for 15 min, and centrifuged at 14,500 rpm for 3 min. […] The MS source parameters were set to the following: drying gas, 320 °C, flow rate 10 l/min; sheath gas, 400 °C at 12 l/min; nebulizer pressure 25 psi; capillary voltage 4000 V; nozzle voltage 0 V. Transitions of [M+H]^+ ions were detected using a dwell time of 150 ms, a cell acceleration of 4 V, and fragmentor voltages of 137 V for 547→357, 257 and 120 transitions (corresponding to collision energies of 16, 32, and 56 V).
# CYP3A4 [1] = molecular target: T3, CYP3A4 (Homo sapiens, UniProt P08684); assay: Inhibition of CYP3A4 in intact HepG2-CYP3A4 cells (P450-Glo, luciferin-IPA); format: cell-based; parameters: expressed in transfected cells; host or cells: HepG2-CYP3A4; conditions: luciferin-IPA 2 µM, 45 min, normalized to viability, read-out: IC50, inhibition of CYP3A4 in enzyme-overexpressing HepG2 cells
# Target sequence in this assay (P08684 whole entry): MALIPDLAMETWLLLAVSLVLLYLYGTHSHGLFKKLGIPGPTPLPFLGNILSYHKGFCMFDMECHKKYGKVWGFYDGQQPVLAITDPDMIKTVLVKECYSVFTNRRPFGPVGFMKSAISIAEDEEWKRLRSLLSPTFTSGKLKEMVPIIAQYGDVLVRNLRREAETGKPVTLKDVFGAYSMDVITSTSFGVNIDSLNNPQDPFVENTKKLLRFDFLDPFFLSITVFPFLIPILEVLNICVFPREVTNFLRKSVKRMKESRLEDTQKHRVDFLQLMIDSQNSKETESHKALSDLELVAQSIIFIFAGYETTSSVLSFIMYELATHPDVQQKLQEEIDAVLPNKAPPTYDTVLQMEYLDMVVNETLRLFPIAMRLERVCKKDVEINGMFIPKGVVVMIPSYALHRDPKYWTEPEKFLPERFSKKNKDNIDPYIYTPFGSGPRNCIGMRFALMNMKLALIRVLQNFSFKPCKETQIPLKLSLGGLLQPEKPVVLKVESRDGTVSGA
# Description: A cell-based method using the P450-Glo CYP3A4 Assay and Screening System with Luciferin-IPA together with the CellTiter-Glo Luminescent Cell Viability Assay was used to measure CYP3A4 inhibition in intact HepG2-CYP3A4 cells [27]. HepG2-CYP3A4 cells were seeded on a transparent 96-well plate at a density of 8.0 × 10^4 cells/well and cultured for 24 h. […] After a 10 min pre-incubation under standard conditions, the CYP3A4 substrate luciferin-IPA was quickly added to all cells other than background samples at a final concentration of 2 µM and the plates were then incubated for 45 min at room temperature. After incubation, the plates were placed on ice and some of the culture media from the cells was transferred to an opaque white 96-well plate and mixed with Luciferin Detection Reagent in a ratio of 1:1 (v/v). The resulting solution was incubated for 20 min at room temperature, then the samples’ luminescence was measured using a microplate reader (Infinite M200 Pro, Tecan, Männedorf, Switzerland) with an integration time of 250 ms. The remaining media was separated from the cells, then 35 µL of pure Opti-MEM was added and the resulting mixture was incubated for 30 min at room temperature. […] Luminescence (which correlates with cell viability) was monitored under conditions identical to those used in the previous step.
# CYP3A4 [2] = molecular target: T3, CYP3A4; assay: Vivid CYP screening kit, recombinant CYP3A4; format: biochemical; parameters: purchased Thermo Fisher Scientific; host or cells: insect microsomal fractions; conditions: recombinant enzyme, 15 min incubation, absolute IC50; read-out: CYP3A4 inhibition IC50
# Description: as §1
# Target sequence in this assay (P08684 2-503 limits assumed): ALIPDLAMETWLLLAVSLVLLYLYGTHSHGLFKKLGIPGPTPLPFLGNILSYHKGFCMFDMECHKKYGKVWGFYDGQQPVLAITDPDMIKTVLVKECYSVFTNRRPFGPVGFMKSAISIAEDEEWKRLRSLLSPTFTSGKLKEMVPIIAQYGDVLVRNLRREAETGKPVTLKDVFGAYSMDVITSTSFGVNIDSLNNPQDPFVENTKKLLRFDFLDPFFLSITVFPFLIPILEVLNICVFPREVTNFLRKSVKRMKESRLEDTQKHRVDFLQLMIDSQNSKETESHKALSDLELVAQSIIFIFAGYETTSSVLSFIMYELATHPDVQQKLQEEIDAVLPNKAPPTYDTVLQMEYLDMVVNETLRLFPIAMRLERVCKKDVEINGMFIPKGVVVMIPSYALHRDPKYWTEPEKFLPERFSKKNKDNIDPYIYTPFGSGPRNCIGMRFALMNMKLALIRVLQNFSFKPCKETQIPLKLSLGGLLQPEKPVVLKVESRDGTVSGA
# T1 sequence (P10635 whole entry): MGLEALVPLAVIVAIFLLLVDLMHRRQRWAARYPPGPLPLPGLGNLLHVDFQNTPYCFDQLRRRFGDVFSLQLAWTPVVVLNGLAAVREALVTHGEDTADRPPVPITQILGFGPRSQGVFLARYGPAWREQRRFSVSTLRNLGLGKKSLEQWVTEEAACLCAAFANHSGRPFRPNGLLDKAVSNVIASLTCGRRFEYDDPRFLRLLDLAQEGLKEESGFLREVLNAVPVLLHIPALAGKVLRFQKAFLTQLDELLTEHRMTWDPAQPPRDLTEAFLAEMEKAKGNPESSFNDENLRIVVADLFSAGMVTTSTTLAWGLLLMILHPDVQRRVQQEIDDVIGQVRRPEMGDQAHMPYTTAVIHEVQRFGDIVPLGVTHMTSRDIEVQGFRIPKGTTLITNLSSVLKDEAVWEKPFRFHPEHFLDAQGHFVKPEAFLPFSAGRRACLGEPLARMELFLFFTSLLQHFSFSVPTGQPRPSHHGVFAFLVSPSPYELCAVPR
smiles,measurement,setting,value
"C[C@@H]1CN(C(=O)c2ccc(NC(=O)c3cc(O[C@H](C)c4c(Cl)ccc(F)c4Cl)c(N)nn3)cc2)C[C@H](C)N1 [ensartinib, Ensartinib]",inhibitory effect on CYP2D6 (in words),CYP2D6,no appreciable inhibitory effect
same,IC50,"CYP2D6; 15 min incubation, absolute IC50, read-out: CYP2D6 inhibition IC50",> 50 µM
same,"efflux ratio at 4 h, 1 µM",ABCC1,1.29
same,IC50,CYP3A4 [1],23.5 µM
same,IC50,CYP3A4 [2],1.12 µM
